Results as given in patent US10028941B2, “Composition for the management of nausea and vomiting” (DUCHESNAY INC., priority 2013, dated 2018).
“Also recorded” adds a separate entry of the source. One block for each compound: values may come before it.

Key:
[1] = system: nausea and vomiting of pregnancy symptoms; assay: Randomized controlled efficacy trial of Diclectin vs placebo in pregnant women: plasma levels vs PUQE score; format: in vivo, human; settings: pregnant women treated with Diclectin for 14 days; FIG. 1
Method: A randomized controlled efficacy trial of Diclectin® vs. placebo in pregnant women was carried out as follows, with the results shown in FIG. 1.
To assess the plasma levels of Doxylamine and PLP and the severity of nausea and vomiting of pregnancy symptoms in pregnant women treated with Diclectin®.
The demographic and medical characteristics of the subjects are as described in Koren et al., Am J Obstet Gynecol 2010; 203(6):571.e1-7.
The study design is as described in Koren et al., 2010, supra. Briefly, a randomized, double-blind, multicenter placebo controlled trial studying pregnant women suffering from nausea and vomiting of pregnancy, analyzed by intention to treat. Women received Diclectin (n=131) or placebo (n=125) for 14 days. Nausea and vomiting of pregnancy symptoms were evaluated daily using the pregnancy unique quantification of emesis scale (PUQE-24, Ebrahimi et al., J Obstet Gynaecol Can. 2009 September; 31(9):803-7).

[2] = Another study with different doses of R5P (5, 10 or 20 mg), plasma PLP levels vs controls; format: in vivo, human
Method: In another study, different doses of R5P were tested: 5, 10 or 20 mg of R5P (i.e. equivalent to the formulations administered to Treatment group C above, with the exception that 5, 10 or 20 mg of R5P was used rather than 40 mg R5P; 8 healthy women for each dose), and the PLP levels were compared to those measured in control healthy women not administered with R5P (24 subjects, equivalent to Treatment group A above).

[3] = Randomized controlled bioavailability study, three-way cross over, plasma PLP after treatments A, B, C; settings: for speed of increase / time of appearance of PLP in the plasma: given together with Doxylamine and Pyridoxine, R5P 40 mg, AUC 0-2 h
Method: The results depicted in FIGS. 2 and 3 were obtained from randomized controlled bioavailability studies in healthy women, which were carried out as follows.
To characterize the pharmacokinetic profile of Pyridoxal-5′-Phosphate (PLP) and to determine whether Riboflavin-5-phosphate (R5P), PLP or PYL in an immediate release formulation can be used to positively alter the kinetics of PLP compared to the current Diclectin® formulation (the current Diclectin® formulation is a delayed release formulation containing 10 mg Doxylamine succinate and 10 mg Pyridoxine-HCl).
Healthy female (n=12) participants between 18 and 45 years of age with a body mass index between 19 and 30 kg/m^2 were administered the treatments described below under empty stomach (fasted) conditions. Blood sampling was conducted extensively from 1 hour pre-administration until 24 hours post-administration. After a wash-out period of 21 days, dose administration and blood sampling was re-conducted as stated above. Doxylamine, Pyridoxine and Pyridoxine metabolites were measured using liquid chromatography-tandem mass spectrometry, as previously described (Nulman and Koren, Can J Clin Pharmacol Vol 16(3):e400-e406, 2009).
Three Way Cross Over Design.
Diclectin®: delayed release formulation containing 10 mg Doxylamine succinate and 10 mg Pyridoxine-HCl (PA-DR).
Immediate release: an oral solution of 20 mg Doxylamine succinate and 20 mg Pyridoxine-HCl (PA-IR).
Treatment group A: One (1) Diclectin® Tablet (current delayed release formulation of 10 mg Doxylamine and 10 mg Pyridoxine-HCl) plus an oral solution of 10 mg Doxylamine and 10 mg Pyridoxal HCl (immediate release) (PYL);
Treatment group B: One (1) Diclectin® Tablet (current delayed release formulation of 10 mg Doxylamine and 10 mg Pyridoxine-HCl) plus an oral solution of 10 mg Doxylamine and 10 mg Pyridoxal-5′-Phosphate (immediate release) (PLP);
Treatment group C: One (1) Diclectin® Tablet (current delayed release formulation of 10 mg Doxylamine and 10 mg Pyridoxine-HCl) plus an oral solution of 10 mg Doxylamine and 10 mg Pyridoxine HCl and 40 mg Riboflavin-5-phosphate (R5P) (immediate release).
Bioavailability; Tmax, Cmax and AUC0-t between each treatment. Doxylamine, and Pyridoxine and its metabolites were measured using liquid chromatography-tandem mass spectrometry, as previously described (Nulman and Koren, Can J Clin Pharmacol Vol 16 (3):e400-e406, 2009).

SMILES: CN(C)CCOC(C)(c1ccccc1)c1ccccn1 (stereo not drawn) [Doxylamine, reference compound]
- plasma concentration vs severity of NVP (PUQE score) [1]: correlates with a reduction in the severity of NVP

SMILES: Cc1ncc(COP(=O)(O)O)c(C=O)c1O [PLP, Pyridoxal 5-phosphate]
- plasma concentration vs severity of NVP (PUQE score) [1]: correlates with a reduction in the severity of NVP

- effect on PLP levels relative to controls ([2]; 5 mg R5P, 8 healthy women, controls without R5P): no significant effect
- effect on PLP levels relative to controls ([2]; 10 mg R5P, 8 healthy women, controls without R5P): no significant effect
- effect with 20 mg R5P compared with 40 mg R5P ([2]; 20 mg vs 40 mg R5P): lower
- inter-subject variations in PLP levels ([3]; administration of R5P): less inter-subject variations
- speed of increase / time of appearance of PLP in the plasma ([3]; listed as FMN): faster time of appearance in the plasma
SMILES: Cc1cc2nc3c(=O)[nH]c(=O)nc-3n(C[C@H](O)[C@H](O)[C@H](O)COP(=O)(O)O)c2cc1C [R5P, riboflavin-5-phosphate]
- effect on pharmacokinetics of PLP relative to controls ([2]; 20 mg R5P, 8 healthy women, controls without R5P): some improvement in the pharmacokinetics of PLP
- time to reach steady-state PLP levels ([3]; administration of R5P): decreased time to reach steady-state PLP levels
- speed of increase / time of appearance of PLP in the plasma [3]: faster increase in the plasma level of PLP
- PLP concentration (AUC) 0-12 h compared with Diclectin (PA-DR) ([3]; healthy women, fasted, one-way ANOVA, FIG. 2): did not increase PLP levels significantly; also recorded: does not significantly affect PLP levels

- speed of increase / time of appearance of PLP in the plasma [3]: did not result in such improvement
SMILES: Cc1ncc(CO)c(C=O)c1O [PYL, Pyridoxal]
